Assay results taken from US20160137746A1, “METHODS FOR TREATING HIGH CARDIOVASCULAR RISK PATIENTS WITH HYPERCHOLESTEROLEMIA” (Sanofi Biotechnology, priority 2014, published 2016).

System: high cardiovascular risk patients with hypercholesterolemia
Assay: ODYSSEY COMBO I: lipid efficacy of alirocumab vs placebo, add-on to maximally tolerated statin, 52 weeks
Assay type: in vivo, human
Text: Each of the COMBO studies was randomized, double-blinded, and placebo-controlled.
The primary efficacy endpoint for each study was the difference between treatment arms in the percent change in LDL-C from baseline to Week 24.
Apo, apolipoprotein; HDL-C, high-density lipoprotein cholesterol; ITT, intent-to-treat; LDL-C, low-density lipoprotein cholesterol; Lp(a), lipoprotein (a); TG, triglycerides.
COMBO I was a Phase 3, randomized, double-blind, placebo-controlled, parallel-group, multicenter, 52-week study.
After randomization, patients entered a double-blind treatment period of 52 weeks. […] Patients randomized to placebo received a 1 ml SC placebo injection from an identical auto-injector.
To maintain blinding, the patient and investigator were not informed of the Week 8 LDL-C levels (or any lipid values after randomization); continuation or up-titration of dose occurred in an automated and blinded manner.
Primary analyses of efficacy endpoints were conducted using an ITT approach (based on the ITT population defined above), including all lipid data, regardless of whether the patient was continuing therapy or not. This corresponds to ITT estimands, defined for primary and key secondary endpoints. In addition, analyses were also conducted using an on-treatment approach (based on the mITT population defined above), including lipid data collected during the efficacy treatment period. This corresponds to on-treatment estimands of key secondary endpoints.
With regards to the primary efficacy analysis (ITT approach), the percent change in calculated LDL-C from baseline to Week 24 was analyzed using a mixed-effect model with repeated measures (MMRM) approach. All post-baseline data available from Week 4 to Week 52 analysis windows were used and missing data were accounted for by the MMRM.

[1] = ITT, Week 24, listed as alirocumab

## Alirocumab: human anti-PCSK9 antibody; HCVR SEQ ID NO:1, LCVR SEQ ID NO:6; CDRs SEQ ID NOs 2/3/4/7/8/10
32 of 191 patients with at least one injection after Week 12
  Patients with automatic up-titration at Week 12 from 75 mg Q2W to 150 mg Q2W (Week 8 LDL-C ≧70 mg/dL): 16.8%
'Combo I: Overall Results' paragraph
  Patients who reached LDL-C <70 mg/dL despite baseline LDL-C >190 mg/dL: 32%
ITT, Week 4
  Calculated LDL-C change from baseline, LS mean: -1.308 mmol/L
  Calculated LDL-C change from baseline, LS mean (SE): −50.5 (1.7) mg/dL
  Calculated LDL-C value, LS mean: 1.327 mmol/L
  Calculated LDL-C value, LS mean (SE): 51.2 (1.7) mg/dL
  Calculated LDL-C, LS mean (SE) percent change from baseline: −50.6 (1.7) %
ITT, Week 8
  Calculated LDL-C change from baseline, LS mean: -1.372 mmol/L
  Calculated LDL-C change from baseline, LS mean (SE): −53.0 (1.7) mg/dL
  Calculated LDL-C value, LS mean: 1.264 mmol/L
  Calculated LDL-C value, LS mean (SE): 48.8 (1.7) mg/dL
  Calculated LDL-C, LS mean (SE) percent change from baseline: −51.6 (1.7) %
ITT, Week 12
  Apo-B percent change, LS mean difference vs placebo: placebo of −38.2%
  Calculated LDL-C change from baseline, LS mean: -1.207 mmol/L
  Calculated LDL-C change from baseline, LS mean (SE): −46.6 (2.0) mg/dL
  Calculated LDL-C percent change, LS mean difference vs placebo: placebo of −47.4%
  Calculated LDL-C value, LS mean: 1.428 mmol/L
  Calculated LDL-C value, LS mean (SE): 55.1 (2.0) mg/dL
  Non-HDL-C percent change, LS mean difference vs placebo: placebo of −40.1%
  Total-C percent change, LS mean difference vs placebo: placebo of −26.4%
ITT, Week 12 (before possible up-titration)
  Calculated LDL-C, LS mean (SE) percent change from baseline: −46.3 (1.8) %
ITT, Week 12 (before possible up-titration), listed as alirocumab
  Calculated LDL-C, LS mean (SE) percent change from baseline: −46.3%
ITT, Week 12, listed as alirocumab
  Calculated LDL-C percent change, LS mean difference vs placebo: −47.4%
ITT, Week 16
  Calculated LDL-C change from baseline, LS mean: -1.345 mmol/L
  Calculated LDL-C change from baseline, LS mean (SE): −51.9 (1.9) mg/dL
  Calculated LDL-C value, LS mean: 1.291 mmol/L
  Calculated LDL-C value, LS mean (SE): 49.8 (1.9) mg/dL
  Calculated LDL-C, LS mean (SE) percent change from baseline: −50.5 (1.9) %
ITT, Week 24
  Apo-B percent change, LS mean difference vs placebo: placebo of −35.8%
  Calculated LDL-C change from baseline, LS mean: -1.303 mmol/L
  Calculated LDL-C change from baseline, LS mean (SE): −50.3 (2.0) mg/dL
  Calculated LDL-C percent change, LS mean difference (SE) vs placebo: −45.9 (3.3) %
  Calculated LDL-C value, LS mean: 1.332 mmol/L
  Calculated LDL-C value, LS mean (SE): 51.4 (2.0) mg/dL
  Calculated LDL-C, LS mean (SE) percent change from baseline: −48.2 (1.9) %
  Calculated LDL-C, LS mean difference (SE) vs placebo, pattern-mixture-model sensitivity analysis: −42.7 (3.7) %
  HDL-C percent change, LS mean difference vs placebo: placebo of 7.3%
  Lp(a) percent change, combined estimate for adjusted mean difference vs placebo: vs. placebo of −14.6%
  Non-HDL-C percent change, LS mean difference vs placebo: placebo of −37.5%
  Total-C percent change, LS mean difference vs placebo: placebo of −25%
[1]
  Calculated LDL-C percent change, LS mean difference (SE) vs placebo: −45.9%
  Calculated LDL-C, LS mean (SE) percent change from baseline: −48.2%
ITT, Week 24, not statistically significant (p 0.7597)
  Fasting TGs percent change, combined estimate for adjusted mean difference vs placebo: vs. placebo of −1.2%
ITT, Week 36
  Calculated LDL-C change from baseline, LS mean: -1.225 mmol/L
  Calculated LDL-C change from baseline, LS mean (SE): −47.3 (2.2) mg/dL
  Calculated LDL-C value, LS mean: 1.411 mmol/L
  Calculated LDL-C value, LS mean (SE): 54.5 (2.2) mg/dL
  Calculated LDL-C, LS mean (SE) percent change from baseline: −44.8 (2.5) %
ITT, Week 52
  Calculated LDL-C change from baseline, LS mean: -1.153 mmol/L
  Calculated LDL-C change from baseline, LS mean (SE): −44.5 (2.4) mg/dL
  Calculated LDL-C percent change, LS mean difference vs placebo: placebo of −43%
  Calculated LDL-C value, LS mean: 1.483 mmol/L
  Calculated LDL-C value, LS mean (SE): 57.2 (2.4) mg/dL
  Calculated LDL-C, LS mean (SE) percent change from baseline: −42.5 (2.5) %
ITT, Week 52, listed as alirocumab
  Calculated LDL-C, LS mean (SE) percent change from baseline: −42.5%
On-treatment, Week 12
  Calculated LDL-C percent change, LS mean difference vs placebo: placebo of −49.3%
On-treatment, Week 24
  Apo-B percent change, LS mean difference vs placebo: placebo of −37.5%
  Calculated LDL-C percent change, LS mean difference (SE) vs placebo: −49.9%
  Calculated LDL-C, LS mean (SE) percent change from baseline: −50.7 (1.9) %
